This is an account of results in US20090208432A1, “AH Receptor Antagonists” (SYMRISE GmbH & Co., KG, priority 2006, published 2009).

By inhibition is commonly meant how much of the control response was suppressed.

Molecules are shown by their SMILES.

The target of this data set is T1, AhR (Homo sapiens, UniProt P35869).
T1 construct: endogenous in cells; host or cells: HaCaT keratinocytes
T1 sequence (P35869 11-848): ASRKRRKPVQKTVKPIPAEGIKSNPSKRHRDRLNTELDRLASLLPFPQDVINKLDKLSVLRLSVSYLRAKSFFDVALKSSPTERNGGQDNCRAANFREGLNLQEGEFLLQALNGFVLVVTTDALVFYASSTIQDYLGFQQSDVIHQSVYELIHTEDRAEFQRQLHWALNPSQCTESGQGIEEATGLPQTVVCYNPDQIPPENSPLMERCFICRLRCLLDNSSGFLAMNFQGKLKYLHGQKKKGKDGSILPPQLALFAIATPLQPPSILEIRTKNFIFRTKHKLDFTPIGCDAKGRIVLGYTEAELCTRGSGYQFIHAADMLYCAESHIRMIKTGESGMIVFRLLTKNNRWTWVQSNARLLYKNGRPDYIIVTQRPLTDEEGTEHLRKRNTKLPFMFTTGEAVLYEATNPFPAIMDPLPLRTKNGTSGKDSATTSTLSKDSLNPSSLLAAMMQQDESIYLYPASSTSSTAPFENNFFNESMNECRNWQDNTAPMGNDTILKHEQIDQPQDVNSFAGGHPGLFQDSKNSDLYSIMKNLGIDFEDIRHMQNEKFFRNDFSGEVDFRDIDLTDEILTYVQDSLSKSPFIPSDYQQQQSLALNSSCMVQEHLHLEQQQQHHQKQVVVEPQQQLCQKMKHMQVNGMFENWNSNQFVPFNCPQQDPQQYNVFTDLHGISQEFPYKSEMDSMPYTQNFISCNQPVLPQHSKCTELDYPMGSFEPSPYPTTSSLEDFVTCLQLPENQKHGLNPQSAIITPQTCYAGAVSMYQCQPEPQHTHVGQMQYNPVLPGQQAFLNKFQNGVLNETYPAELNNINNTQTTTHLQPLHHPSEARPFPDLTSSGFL
Put plainly: Quantification of AhR inhibition via determination of CYP1A1-mRNA in UVB-irradiated HaCaT keratinocytes. In kind it is cell-based. To be noted: HaCaT cells, 100 J/m^2 UVB, pretreated 1 h before irradiation, RNA after 4 h, relative to control (PBS, 0.1% DMSO, UVB-irradiated). From the text: HaCaT keratinocytes were cultivated in DMEM containing 10% of foetal calf serum. The cells were irradiated with UVB in PBS (phosphate buffered saline). For irradiation with UVB we used a TL20W/12RS lamp, which contains four parallel tubes (Philips, Eindhoven, The Netherlands) and emits the bulk of its energy in the UVB range (290-320 nm). The emission peak of the lamp is at 310 nm. Control cells were subjected to the same treatment but were not irradiated. To inhibit the AhR, the cells were treated with the test substances 1 h prior to irradiation.
HaCaT cells were irradiated with 100 J/m^2 of UVB. Some cells were pretreated with the test substances 1 h prior to irradiation. […] The PCR mix was composed of 1/10 by volume of QuantiTect® SYBR Green PCR Master Mix (Qiagen, Hilden, Germany), 0.5 μmol/l of the appropriate primer, 2 μl of cDNA and DEPC-treated (diethyl pyrocarbonate-treated) H2O in a final volume of 20 μl. […] The PCR conditions were as follows: 40 cycles of 15 sec at 94° C. for denaturing, 25 sec at 60° C. for primer attachment, 30 sec at 72° C. for extension and 2 sec at 72° C. for fluorescence measurement. […] The PCR products were quantified via a fragment-specific standard curve using LightCycler software 3. […]
Quantification of AhR Inhibition Via Determination of CYP1A1-mRNA

For the compound `Oc1ccc2c(c1)OC1c3cc(O)c(O)cc3COC1C2O` (centres unmarked) [Peltogynol], the “CYP1A1 inhibition in presence of UVB light” value (0.0001 wt. %) is 60%.

As to `Oc1ccc2c(c1)OC[C@H]1c3cc4c(cc3O[C@@H]21)OCO4` [Maackiain], the inhibition at 350 µM (0.35 mM, read-out: CYP1A1 inhibition in presence of UVB light) is 60%.
